In patent US4534979A, “Polyene compounds useful in the treatment of psoriasis and allergic responses” (USV Pharmaceutical Corp., priority 1984, dated 1985):
Where two headings read alike, the source gives them in different places.

Legend:
[1] = tested on: mouse epidermal cell culture; assay: mouse epidermal cell culture, cell proliferation by uptake of tritiated thymidine into DNA; format: cell-based; settings: for percentage uptake in comparison to the standards (TRA, CRA): all time points; for activity at 12 µg/mL: Mus musculus, read-out: percentage uptake of tritiated thymidine relative to vehicle control (100%)
[2] = tested on: mouse epidermal cell culture; assay: mouse epidermal cell culture, anti-differentiation activity (Kreyberg staining and nuclei enumeration); format: cell-based; design: key to culture staining by the Kreyberg technique, score (maximum differentiation 10): Kreyberg staining score; 10 = maximum differentiation; key to nuclei enumeration, score (maximum differentiation 0): nuclei enumeration score; 0 = maximum differentiation; settings: 12 ug/ml; for culture staining by the Kreyberg technique, score (maximum differentiation 10): first number of the ratio; for nuclei enumeration, score (maximum differentiation 0): second number of the ratio
Excerpt: (§1) Compounds of this invention are active against various skin disorders, such as acne and psoriasis, when tested according to models considered to be predictive of the clinical condition in humans. The models used were the rhino mouse procedure (Kligman, et al., J. Investigative Dermatology 73, 354 (1979)), the rabbit comedolytic procedure (Mills O. H., Kligman A. M.: Assay of Comedolytic Agents in the Rabbit Ear, Animal Models in Dermatology; Relevance to Human Dermatopharmacology and Dermatotoxicology,edited by H. I. Maibach, New York Churchill-Livingston, 1975, pp. 176-183) and the mouse epidermal cell culture procedure (Marcelo, et al., J. Cell Biol., 79, 356 (1978). Testing was done comparatively against standard retinoids known to be effective in these disorders and against a known α-methyl retinoid (2,7-dimethyl-9-(2,6,6-trimethyl-1-cyclohexene-1-yl)-2,3,6,8-nonatetraenoic acid, referred to as DTCNA).
The ratios in the table represent scoring of two measured parameters, culture staining by the Kreyberg technique (maximum differentiation 10) and nuclei enumeration (maximum differentiation 0). Thus the highest possible anti-differentiative activity would be given by the ratio 0/10.

[3] = tested on: rhino mouse utriculi (pseudocomedones); assay: rhino mouse procedure; format: in vivo; settings: rhino mouse model, concentration 0.05%
Excerpt: as §1
(§2) Activity equal to or greater than the standards and the known compound was shown by 2,5,9-trimethyl-11-(2,6,6-trimethyl-1-cyclohexene-1-yl)-2,4,6,8,10-undecapentaenoic acid (TTCUA).

rabbit ear comedones = assay: rabbit comedolytic procedure (rabbit ear model); format: in vivo; settings: concentration of 0.05%, compared with TRA
Excerpt: as §1, §2

[4] = tested on: 5-Lipoxygenese pathway (LOX, Rat PMN); assay: lipoxygenase pathway inhibition assay (14C-arachidonic acid oxidation by neutrophil homogenate); format: biochemical; settings: concentration required for inhibition of the 5-Lipoxygenese pathway; read-out: LOX, Rat PMN (I50)
[5] = 72 h, 12 ug/ml, day 3 of culture exposure to drug
[6] = 120 h, 12 ug/ml, day 5 of culture exposure to drug
[7] = 240 h, 12 ug/ml, day 10 of culture exposure to drug

## CC1=C(/C=C/C(C)=C/C=C/C(C)=C/C=C(\C)C(=O)O)C(C)(C)CCC1 [TTCUA, 2,5,9-trimethyl-11-(2,6,6-trimethyl-1-cyclohexene-1-yl)-2,4,6,8,10-undecapentaenoic acid]
[1]; 12 ug/ml
  percentage uptake in comparison to the standards (TRA, CRA): up to five fold less
[1]; [5]
  activity at 12 µg/mL: 31%
[1]; [6]
  activity at 12 µg/mL: 15%
[1]; [7]
  activity at 12 µg/mL: 21%
[2]; day 3
  culture staining by the Kreyberg technique, score (maximum differentiation 10): 2
  nuclei enumeration, score (maximum differentiation 0): 6
[2]; day 6
  culture staining by the Kreyberg technique, score (maximum differentiation 10): 0.5
  nuclei enumeration, score (maximum differentiation 0): 8.5
[2]; day 10
  culture staining by the Kreyberg technique, score (maximum differentiation 10): 1
  nuclei enumeration, score (maximum differentiation 0): 7.5
[2]; mouse epidermal cell culture
  anti-differentiation activity: more active in both parameters than the two standards and high
[3]
  epidermal hyperplasia of the skin: moderate epidermal hyperplasia
[3]; compared with TRA
  ability to reduce the amount of horny impaction in the utriculi: equal to TRA
  ability to reduce the size of utriculi (pseudocomedones): equal to TRA
[3]; versus untreated control animals
  skin wrinkling: significantly less wrinkling
Rabbit ear comedones
  ability to reduce comedone size: equal to trans retinoic acid (TRA)

## CC(/C=C/c1ccc(OCc2ccccc2)cc1)=C\C=C\C(=O)O [Example 6, 7-(4-Benzyloxyphenyl)-5-Methyl-Hepta-2,4,6-Trienoic Acid]
[4]
  IC50: 2 µM

## CC\C(=C/C=C(C)/C=C/C=C(C)/C=C/C1=C(C)CCCC1(C)C)C(=O)O [Example 3B, 5,9-Dimethyl-2-Ethyl-11-(2,6,6-Trimethyl-1-Cyclohexen-1-yl)-2,4,6,8,10-Undecapentaenoic Acid]
[4]
  IC50: 13 µM

## CC(C=CC1=C(C)CCCC1(C)C)=CC=CC=C(C)C(=O)O [DTCNA]
[1]; 12 ug/ml
  percentage uptake in comparison to the standards (TRA, CRA): about the same
[1]; [5]
  activity at 12 µg/mL: 53%
[1]; [6]
  activity at 12 µg/mL: 61%
[1]; [7]
  activity at 12 µg/mL: 60%
[2]; day 3
  culture staining by the Kreyberg technique, score (maximum differentiation 10): 3
  nuclei enumeration, score (maximum differentiation 0): 6
[2]; day 6
  culture staining by the Kreyberg technique, score (maximum differentiation 10): 2
  nuclei enumeration, score (maximum differentiation 0): 6
[2]; day 10
  culture staining by the Kreyberg technique, score (maximum differentiation 10): 2
  nuclei enumeration, score (maximum differentiation 0): 5

## CC1=C(/C=C/C(C)=C/C=C/C(C)=C\C(=O)O)C(C)(C)CCC1 [CRA]
[1]; 12 ug/ml, day 3 of culture exposure to drug
  percentage uptake of tritiated thymidine relative to vehicle control (100%): 47%
[1]; 12 ug/ml, day 5 of culture exposure to drug
  percentage uptake of tritiated thymidine relative to vehicle control (100%): 75%
[1]; 12 ug/ml, day 10 of culture exposure to drug
  percentage uptake of tritiated thymidine relative to vehicle control (100%): 64%
[2]; day 3
  culture staining by the Kreyberg technique, score (maximum differentiation 10): 2
  nuclei enumeration, score (maximum differentiation 0): 7
[2]; day 6
  culture staining by the Kreyberg technique, score (maximum differentiation 10): 2
  nuclei enumeration, score (maximum differentiation 0): 7
[2]; day 10
  culture staining by the Kreyberg technique, score (maximum differentiation 10): 2
  nuclei enumeration, score (maximum differentiation 0): 6.5

## CC1=C(/C=C/C(C)=C/C=C/C(C)=C/C(=O)O)C(C)(C)CCC1 [TRA, trans retinoic acid]
[1]; 72 h
  activity at 12 µg/mL: 77%
[1]; 120 h
  activity at 12 µg/mL: 53%
[1]; 240 h
  activity at 12 µg/mL: 36%
[4]
  IC50: 90 µM
[2]; day 3
  culture staining by the Kreyberg technique, score (maximum differentiation 10): 3
  nuclei enumeration, score (maximum differentiation 0): 5
[2]; day 6
  culture staining by the Kreyberg technique, score (maximum differentiation 10): 3
  nuclei enumeration, score (maximum differentiation 0): 5
[2]; day 10
  culture staining by the Kreyberg technique, score (maximum differentiation 10): 2
  nuclei enumeration, score (maximum differentiation 0): 6

## COc1cc(C)c(/C=C/C(C)=C/C=C/C(=O)O)c(C)c1C [Example 8, 7-(4-Methoxy-2,3,6-Trimethylphenyl)-5-Methyl-Hepta-2,4,6-Trienoic Acid]
[4]
  IC50: 10 µM
